Experimental findings from patent publication US20110046187A1, “ASSESSING CONGESTIVE HEART RISK IN PATIENTS TREATED OR POTENTIALLY TO BE TREATED WITH A PEROXISOME-PROLIFERATOR-ACTIVATOR-RECEPTOR-GAMMA AGONIST OR A THIAZOLIDINEDIONE” (BG MEDICINE, INC., priority 2007, published 2011) are described below.

Counter-ions that a name gives are not always drawn.

Assay type in all cases: in vivo
One experiment has as its system Galectin-3 mRNA. Briefly: Transcriptional profiling (Affymetrix GeneChip) of Galectin-3 mRNA levels in mouse T2DM animal models (db/db and HFD). More on the design: key to Direction & Significance, Galectin-3 mRNA: Significant difference between the Group A and Group B median values for Galectin-3 mRNA; NS: No Significant Difference based on statistical comparison of Galectin-3 mRNA values in Group A and Group B. Particulars: for Direction & Significance, Galectin-3 mRNA / MFC (median fold change) Galectin-3 mRNA: drug/Disease (vehicle), Day 14; for MFC (median fold change) Galectin-3 mRNA: oral twice/day 14 days; for Effect on Gal-3 mRNA levels in adipose tissue, muscle or liver: mouse models of T2DM (text summary of Table 1).

Experiment [1] relates to BNP mRNA. Briefly: Transcriptional profiling (Affymetrix GeneChip) of BNP mRNA levels in mouse T2DM animal models (db/db and HFD). More on the design: key to Direction & Significance, BNP mRNA: Significant difference between the Group A and Group B median values for BNP mRNA; NS: No Significant Difference based on statistical comparison of Galectin-3 mRNA values in Group A and Group B. The following applies: drug/Disease (vehicle); for MFC (median fold change) BNP mRNA: oral twice/day 14 days; for Direction & Significance, BNP mRNA: Day 14.

The subject of experiment [2] is BNP mRNA. Briefly: BNP mRNA level in muscle, Clinical, Rosi/Placebo.
Where [3] appears, read: Adipose, HFD-06 high fat diet mouse.
The mark [4] stands for this setting: Liver, HFD-06 high fat diet mouse.
Where [5] appears, read: Muscle, HFD-06 high fat diet mouse.
[6] abbreviates: Adipose, HFD-07 high fat diet mouse.
The mark [7] stands for this setting: Liver, HFD-07 high fat diet mouse.
The mark [8] stands for this setting: Muscle, HFD-07 high fat diet mouse.

`COc1ccc(Cl)cc1C(=O)NCCc1ccc(S(=O)(=O)NC(=O)NC2CCCCC2)cc1` [Glyburide, glyburide]: the “Direction & Significance, Galectin-3 mRNA” value in the experiment with Galectin-3 mRNA (Adipose, DB-07 db/db mouse) is “Increase NS”; in the experiment on Galectin-3 mRNA (setting [3]) it was “Increase NS”; with Galectin-3 mRNA (Liver, DB-07 db/db mouse), “Increase NS”; with Galectin-3 mRNA (setting [4]) it was “Increase NS”; in the experiment with Galectin-3 mRNA (Muscle, DB-07 db/db mouse) it was “Increase NS”; in the experiment with Galectin-3 mRNA (setting [5]), “Decrease NS”. The “MFC (median fold change) Galectin-3 mRNA” value with Galectin-3 mRNA (Adipose, DB-07 db/db mouse) is listed as 1.10; against Galectin-3 mRNA (setting [3]), 1.04; against Galectin-3 mRNA (Liver, DB-07 db/db mouse) it was 1.01; against Galectin-3 mRNA (setting [4]) it was 1.02; in the experiment with Galectin-3 mRNA (Muscle, DB-07 db/db mouse), 1.19; in the experiment with Galectin-3 mRNA (setting [5]) it was 0.87. In addition, in the experiment with Galectin-3 mRNA, the “Effect on Gal-3 mRNA levels in adipose tissue, muscle or liver” value is recorded as “Neither glyburide nor metformin treatment of the mouse models of T2DM had any significant effect”. Moreover, the “MFC (median fold change) BNP mRNA” value in the experiment on BNP mRNA [1] (Adipose, DB-07 db/db mouse) came out at 1.02; in the experiment on BNP mRNA [1] (setting [3]) it was 1.16; in the experiment with BNP mRNA [1] (Liver, DB-07 db/db mouse), 0.85; in the experiment on BNP mRNA [1] (setting [4]) it was 0.93; against BNP mRNA [1] (Muscle, DB-07 db/db mouse), 0.83; against BNP mRNA [1] (setting [5]) it was 3.17. Besides, the “Direction & Significance, BNP mRNA” value in the experiment with BNP mRNA [1] (Adipose, DB-07 db/db mouse) is “Increase NS”; with BNP mRNA [1] (setting [3]), “Increase NS”; with BNP mRNA [1] (Liver, DB-07 db/db mouse) it was “Decrease NS”; in the experiment with BNP mRNA [1] (setting [4]), “Decrease NS”; in the experiment on BNP mRNA [1] (Muscle, DB-07 db/db mouse) it was “Decrease NS”; with BNP mRNA [1] (setting [5]), “Increase NS”.

Take `CN(C)C(=N)N=C(N)N` [Metformin, metformin]: the “Direction & Significance, Galectin-3 mRNA” value is “Increase NS” with Galectin-3 mRNA (Adipose, DB-07 db/db mouse); “Increase NS” in the experiment with Galectin-3 mRNA (setting [3]); “Increase NS” in the experiment with Galectin-3 mRNA (Liver, DB-07 db/db mouse); “Increase NS” in the experiment on Galectin-3 mRNA (setting [4]); “Decrease NS” with Galectin-3 mRNA (Muscle, DB-07 db/db mouse); “Decrease NS” in the experiment on Galectin-3 mRNA (setting [5]). For the same molecule, the “MFC (median fold change) Galectin-3 mRNA” value was determined as 1.10 with Galectin-3 mRNA (Adipose, DB-07 db/db mouse); 1.08 against Galectin-3 mRNA (setting [3]); 1.06 in the experiment on Galectin-3 mRNA (Liver, DB-07 db/db mouse); 1.08 against Galectin-3 mRNA (setting [4]); 0.90 in the experiment with Galectin-3 mRNA (Muscle, DB-07 db/db mouse); 0.82 in the experiment with Galectin-3 mRNA (setting [5]). The “Effect on Gal-3 mRNA levels in adipose tissue, muscle or liver” value in the experiment on Galectin-3 mRNA was “Neither glyburide nor metformin treatment of the mouse models of T2DM had any significant effect”. For the same molecule, the “MFC (median fold change) BNP mRNA” value stood at 0.87 against BNP mRNA [1] (Adipose, DB-07 db/db mouse); 0.67 in the experiment on BNP mRNA [1] (setting [3]); 0.88 in the experiment with BNP mRNA [1] (Liver, DB-07 db/db mouse); 1.03 in the experiment on BNP mRNA [1] (setting [4]); 1.09 with BNP mRNA [1] (Muscle, DB-07 db/db mouse); 2.17 with BNP mRNA [1] (setting [5]). In addition, the “Direction & Significance, BNP mRNA” value was “Decrease NS” in the experiment on BNP mRNA [1] (Adipose, DB-07 db/db mouse); “Decrease NS” in the experiment with BNP mRNA [1] (setting [3]); “Decrease NS” with BNP mRNA [1] (Liver, DB-07 db/db mouse); “Increase NS” in the experiment on BNP mRNA [1] (setting [4]); “Increase NS” with BNP mRNA [1] (Muscle, DB-07 db/db mouse); “Increase NS” in the experiment with BNP mRNA [1] (setting [5]).

As to `CN(CCOc1ccc(CC2SC(=O)NC2=O)cc1)c1ccccn1` (centres unmarked) [Rosi, rosiglitazone maleate], the “Direction & Significance, Galectin-3 mRNA” value was “Signif” in the experiment on Galectin-3 mRNA (Adipose, DB-06 db/db mouse); “Signif” with Galectin-3 mRNA (setting [6]); “Signif” in the experiment with Galectin-3 mRNA (Liver, DB-06 db/db mouse); “Signif” with Galectin-3 mRNA (Muscle, DB-06 db/db mouse). In addition, the “MFC (median fold change) Galectin-3 mRNA” value against Galectin-3 mRNA (Adipose, DB-06 db/db mouse) is on record as 0.55; in the experiment with Galectin-3 mRNA (setting [6]), 0.64; against Galectin-3 mRNA (Liver, DB-06 db/db mouse), 1.33; in the experiment with Galectin-3 mRNA (setting [7]), 1.07; against Galectin-3 mRNA (Muscle, DB-06 db/db mouse), 0.87; against Galectin-3 mRNA (setting [8]) it was 0.80. In addition, the “MFC (median fold change) BNP mRNA” value with BNP mRNA [1] (Adipose, DB-06 db/db mouse) turned out to be 1.13; against BNP mRNA [1] (setting [6]) it was 1.29; against BNP mRNA [1] (Liver, DB-06 db/db mouse), 1.68; in the experiment with BNP mRNA [1] (setting [7]), 0.77; against BNP mRNA [1] (Muscle, DB-06 db/db mouse), 0.58; in the experiment with BNP mRNA [1] (setting [8]), 1.40. Also, the “MFC (median fold change) BNP mRNA” value in the experiment on BNP mRNA [2] was determined as 0.63. In the experiment on BNP mRNA [1] (setting [6]), the “Direction & Significance, BNP mRNA” value is on record as “Signif”.
